Measurements reported in US10035778B2, “Meta-azacyclic amino benzoic acid derivatives as pan integrin antagonists” (Saint Louis University, priority 2015, dated 2018).

Assays:
[1] = biological target: Recombinant human integrin α5β1 (Homo sapiens (Human), UniProt P05556+P08648); assay: Solid Phase Receptor Assay (SPRA) for α5β1 function; format: binding; conditions: fibronectin-coated plate
Method: 1. Solid Phase Receptor Assay (SPRA) for α5β1 Function
Purified human fibronectin (R&D Systems, 1918-FN) diluted to 2 μg/mL in TBS+ buffer (25 mM Tris pH 7.4, 137 mM NaCl, 2.7 mM KCl, 1 mM CaCl2, 1 mM MgCl2, 1 mM MnCl2) was added to wells (50 μL/well) of a 96-well half-well transparent microtiter plate (Greiner 675061) and incubated overnight at 4° C. Wells were washed 3 times with 150 μL TBS+ and 150 μL of blocking buffer (TBS+ with 1% bovine serum albumin, Sigma A7906) were added. The plate was incubated for 1 hr at 37° C. and then washed 3× with TBS+ buffer. Recombinant human integrin α5β1 (R&D Systems, 3230-A5) was diluted to 0.1 μg/mL in TBS+/0.1% bovine serum albumin. Compounds were diluted 1:100 into the integrin solution and then 50 μL added to empty wells of the washed fibronectin-coated plate according to a standard template with each sample repeated in triplicate. After incubation for two hours at room temperature, the plate was washed 3× with 150 μL of TBS+ buffer. To each well, 50 μl of biotinylated anti-α5 antibody (R&D Systems, BAF1864) at 0.5 μg/mL in TBS+/0.1% BSA were added and the plate covered and incubated for 1 hr at room temperature. After washing the plate 3× with 150 μL of TBS+ buffer, 50 μL of streptavidin-conjugated horseradish peroxidase (R&D Systems, DY998) diluted in TBS+ blocking buffer were added to the wells and the plate incubated for 20 min at room temperature. The plate was washed 3× with TBS+ buffer followed by 50 μL of room temperature TMB substrate (Sigma, T444) added to each well and the plate incubated for 20 min at room temperature. Plates were read by colorimetric detection at 650 nm wavelength using a Tecan Safire II plate reader. Concentration-response curves were constructed by non-linear regression (best fit) analysis, and IC50 values were calculated for each compound.

[2] = IV cassette pharmacokinetic study in male Sprague-Dawley rats (Saint Louis University); format: in vivo; conditions: plasma; male Sprague-Dawley rat, 1 mg/kg IV cassette, sampling to 24 h; read-out: plasma t½ after 1 mg/kg IV bolus dose in rat (converted)
Method: (§1) A minimally sufficient volume of dimethylsulfoxide (DMSO) was added to each test compound to achieve solubilization. For intravenous (IV) delivery, compounds were then formulated as solutions in glycerol formal: saline (either 20:80 or 40:60 v/v) (Sigma Chemicals, St. Louis). For oral (PO) administration, compounds were formulated with 0.5% methylcellulose. Five to six compound solutions were combined into a singled mixed solution for IV and PO cassette administration with final DMSO concentrations <0.6% or <1.2%, for the IV and PO cassettes, respectively. Analytes were detected in test samples using an LC/MS/MS (liquid chromatography/mass spectrometry) system consisting of an LC-20AD pump (Shimadzu, Kyoto, Japan), an HTC PAL autosampler (Leap technologies, Carrboro, N.C.), and a Sciex API-4000 mass spectrometer in ESI mode (AB Sciex, Foster City, Calif.). An Amour C18 reverse phase column (Analytical Sales and Services, Pompton Plains, N.J.) was used for chromatographic separation.
(§2) Pharmacokinetic (PK) studies conducted at Saint Louis University used male Sprague-Dawley rats with an initial body weight of 200 to 220 g. IV PK studies were performed with the following compounds: Examples 1-3 and 5-17 and comparison compounds C12-C18, C29, and C30. Animals were allowed free access to food and water. Rats were individually housed and connected to jugular vein catheters. Each cassette formulation was administered intravenously to two rats (1 mL/kg body weight). Each cassette formulation contained 5-6 compounds at 1 mg/kg in either 20:80 or 40/60 glycerol formal/saline (v/v). Blood was collected manually via the catheter into lithium-heparin tubes at 0.017, 0.083, 0.5, 1, 2, 4, 6 and 24 hours post-dose. Animals were euthanized with CO2 at the end of the experiment.
(§3) Internal standard was added to all samples at 200 ng/mL (final), as well as 150 μL of acetonitrile. Plasma samples (50 μL total volume) were diluted with control nave rat plasma as appropriate to bring the sample measurement into the linear dynamic range of the standard curve. The samples were capped and mixed on a multi-plate vortexer for 5 minutes and centrifuged for 5 minutes at 3200 rmp. The supernant was transferred to 96-well sample plate and capped for LC/MS/MS analysis. Compounds were optimized and monitored for their respective MRM transitions. The mobile phases consisted of 0.1% formic acid (aqueous) and 100% acetonitrile (organic) with an Amour C18 reverse phase column (2.1×30 mm, 5 micron) at a flow rate of 0.35 mL/min. The starting phase was 10% acetonitrile for the 0.9 minutes then increased to 90% acetonitrile over 0.4 minutes, and was maintained for an additional 0.2 minutes before returning to 10% acetonitrile over 0.4 minutes. The 10% acetonitrile was held for an additional 1.6 minutes. Peak areas were integrated using Analyst 1.5.1 (AB Sciex, Foster City, Calif.).

[3] = Oral (PO) cassette pharmacokinetic study in male Sprague-Dawley rats; format: in vivo; conditions: plasma; male Sprague-Dawley rat, 2 mg/kg oral gavage cassette in 0.5% methylcellulose; read-out: AUC (0-inf) after a 2 mg/kg PO dose in rat
Method: as §1, §2
Oral PK studies were conducted with the following compounds: Examples 1-3 and 5-17 and comparison compounds C12, C14-16 and C29-30. The PO cassette formulations were administered via oral gavage to two rats (10 mL/kg body weight) containing 5-6 compounds per cassette. The oral dose was administered at 2 mg/kg/compound in 0.5% methylcellulose. Blood collection time points were 0.25, 0.5, 1, 2, 4, 6 and 24 hours post-dose into lithium-heparin tubes. Animals were euthanized with CO2 at the end of the experiment.
as §3

Chain of Recombinant human integrin α5β1 (P08648 42-995): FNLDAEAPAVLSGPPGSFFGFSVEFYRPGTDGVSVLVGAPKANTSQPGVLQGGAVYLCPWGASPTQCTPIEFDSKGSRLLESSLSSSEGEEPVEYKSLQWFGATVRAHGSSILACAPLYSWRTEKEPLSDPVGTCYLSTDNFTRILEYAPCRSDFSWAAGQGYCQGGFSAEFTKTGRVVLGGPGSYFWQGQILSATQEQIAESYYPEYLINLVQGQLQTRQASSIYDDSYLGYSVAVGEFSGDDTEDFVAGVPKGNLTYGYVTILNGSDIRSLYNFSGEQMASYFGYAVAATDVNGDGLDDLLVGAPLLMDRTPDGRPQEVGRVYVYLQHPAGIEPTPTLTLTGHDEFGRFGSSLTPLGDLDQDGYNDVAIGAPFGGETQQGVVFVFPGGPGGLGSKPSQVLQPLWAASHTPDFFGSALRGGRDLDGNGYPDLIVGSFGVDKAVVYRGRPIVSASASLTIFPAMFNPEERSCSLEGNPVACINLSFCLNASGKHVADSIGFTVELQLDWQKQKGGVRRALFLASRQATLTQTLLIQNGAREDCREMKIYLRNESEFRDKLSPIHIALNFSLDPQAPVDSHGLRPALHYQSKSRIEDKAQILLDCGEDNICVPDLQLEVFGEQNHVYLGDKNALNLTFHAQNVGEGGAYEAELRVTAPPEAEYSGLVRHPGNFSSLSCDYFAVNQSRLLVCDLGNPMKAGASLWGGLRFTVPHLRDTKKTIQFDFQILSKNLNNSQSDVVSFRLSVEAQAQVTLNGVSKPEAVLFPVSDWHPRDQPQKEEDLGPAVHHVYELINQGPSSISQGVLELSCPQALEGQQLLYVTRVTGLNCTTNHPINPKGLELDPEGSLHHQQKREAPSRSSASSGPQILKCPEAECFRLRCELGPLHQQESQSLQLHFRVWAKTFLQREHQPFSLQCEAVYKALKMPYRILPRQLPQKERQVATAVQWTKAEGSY
Chain of Recombinant human integrin α5β1 (P05556 21-728): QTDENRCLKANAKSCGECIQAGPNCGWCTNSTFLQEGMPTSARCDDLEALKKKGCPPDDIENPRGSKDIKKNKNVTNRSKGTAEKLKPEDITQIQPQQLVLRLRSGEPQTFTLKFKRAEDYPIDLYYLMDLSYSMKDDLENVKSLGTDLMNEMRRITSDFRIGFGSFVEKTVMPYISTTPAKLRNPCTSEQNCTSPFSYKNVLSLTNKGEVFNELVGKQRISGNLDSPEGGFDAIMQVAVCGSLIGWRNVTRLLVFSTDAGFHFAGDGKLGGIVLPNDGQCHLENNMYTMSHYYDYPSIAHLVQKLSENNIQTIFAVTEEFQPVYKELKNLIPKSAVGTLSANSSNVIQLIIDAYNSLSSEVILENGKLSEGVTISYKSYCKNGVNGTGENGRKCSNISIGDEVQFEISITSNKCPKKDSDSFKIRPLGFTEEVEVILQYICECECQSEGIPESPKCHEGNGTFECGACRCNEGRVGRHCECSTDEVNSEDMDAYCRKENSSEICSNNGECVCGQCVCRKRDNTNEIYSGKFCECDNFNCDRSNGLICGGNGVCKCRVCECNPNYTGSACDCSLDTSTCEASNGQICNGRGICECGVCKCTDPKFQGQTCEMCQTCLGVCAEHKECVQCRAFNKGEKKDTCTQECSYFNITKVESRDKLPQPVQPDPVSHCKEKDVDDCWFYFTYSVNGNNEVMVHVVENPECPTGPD

SMILES | IC50 [1] [nM] | half-life [2] [h] | AUC(0-inf) [3] [ng·h/mL]
O=C(O)C[C@H](NC(=O)CNC(=O)c1cc(O)cc(NC2=NCC(O)CN2)c1)c1cc(F)cc(Br)c1 (stereo partly drawn) [Example 13, (3S)-3-[3-bromo-5-fluoro-phenyl)-3-(2-(3-hydroxy-5-((5-hydroxy-1,4,5,6-tetrahydropyrimidin-2-yl)amino)benzamido)acetamido)propanoic acid] | 0.6 | 11 | 13900
O=C(O)C[C@H](NC(=O)CNC(=O)c1cncc(NC2=NCC(O)CN2)c1)c1cc(Br)cc(Br)c1 (stereo partly drawn) [Example 14, (3S)-3-(3,5-dibromophenyl)-3-[[2-[[5-[(5-hydroxy-1,4,5,6-tetrahydropyrimidin-2-yl)amino]pyridine-3-carbonyl]amino]acetyl]amino]propanoic acid] | 0.6 | 34.2 | 6500
O=C(O)C[C@H](NC(=O)CNC(=O)c1cc(O)cc(NC2=NCC(O)CN2)c1)c1cc(Cl)cc(OC(F)(F)F)c1 (stereo partly drawn) [Example 16, (3S)-3-[3-chloro-5-(trifluoromethoxy)phenyl)-3-(2-(3-hydroxy-5-((5-hydroxy-1,4,5,6-tetrahydropyrimidin-2-yl)amino)benzamido)acetamido)propanoic acid] | 1 ± 0.4 | 3.2 | 6810
O=C(O)C[C@H](NC(=O)CNC(=O)c1cc(O)cc(NC2=NCC(O)CN2)c1)c1cc(Br)cc(Br)c1 (stereo partly drawn) [Example 1, (3S)-3-(3,5-dibromophenyl)-3-(2-(3-hydroxy-5-((5-hydroxy-1,4,5,6-tetrahydropyrimidin-2-yl)amino)benzamido)acetamido)propanoic acid] | 1 ± 0.5 | 20.2 | 25000
O=C(O)C[C@H](NC(=O)CNC(=O)c1cc(O)cc(NC2=NCC(O)CN2)c1)c1cc(C(F)(F)F)cc(C(F)(F)F)c1 (stereo partly drawn) [Example 10, (3S)-3-[3,5-bis(trifluoromethyl)phenyl)-3-(2-(3-hydroxy-5-((5-hydroxy-1,4,5,6-tetrahydropyrimidin-2-yl)amino)benzamido)acetamido]propanoic acid] | 1 ± 0.4 | 3.9 | 13000
O=C(O)C[C@H](NC(=O)CNC(=O)c1cc(O)cc(NC2=NCC(O)CN2)c1)c1cc(Cl)cc(C(F)F)c1 (stereo partly drawn) [Example 3, (3S)-3-[3-chloro-5-(difluoromethyl)phenyl)-3-(2-(3-hydroxy-5-((5-hydroxy-1,4,5,6-tetrahydropyrimidin-2-yl)amino)benzamido)acetamido]propanoic acid] | 0.5 | 6.1 | 4870
O=C(O)C[C@H](NC(=O)CNC(=O)c1cc(O)cc(NC2=NCC(O)CN2)c1)c1cc(Br)cc(C(F)(F)F)c1 (stereo partly drawn) [Example 2, (3S)-3-(3-bromo-5-(trifluoromethyl)phenyl)-3-(2-(3-hydroxy-5-((5-hydroxy-1,4,5,6-tetrahydropyrimidin-2-yl)amino)benzamido)acetamido)propanoic acid] | 0.8 | 9.1 | 19300
O=C(O)C[C@H](NC(=O)CNC(=O)c1cc(O)cc(NC2=NCC(O)CN2)c1)c1cc(Br)cc(C(F)F)c1 (stereo partly drawn) [Example 4, (3S)-3-[3-bromo-5-(difluoromethyl)phenyl)-3-(2-(3-hydroxy-5-((5-hydroxy-1,4,5,6-tetrahydropyrimidin-2-yl)amino)benzamido)acetamido]propanoic acid] | 0.7 |  | 
O=C(O)C[C@H](NC(=O)CNC(=O)c1cncc(NC2=NCC(O)CN2)c1)c1cc(Cl)cc(C(F)(F)F)c1 (stereo partly drawn) [Example 7] | 0.7 | 4.6 | 3890
Cc1cc(Cl)cc([C@@H](CC(=O)O)NC(=O)CNC(=O)c2cccc(NC3=NCCN3)c2)c1O [Example C11, reference compound] | 33 |  | 
O=C(O)C[C@H](NC(=O)CNC(=O)c1cc(O)cc(NC2=NCC(O)CN2)c1)c1cc(Br)cc(OC(F)(F)F)c1 (stereo partly drawn) [Example 17, (3S)-3-(3-bromo-5-(trifluoromethoxy)phenyl)-3-(2-(3-hydroxy-5-((5-hydroxy-1,4,5,6-tetrahydropyrimidin-2-yl)amino)benzamido)acetamido)propanoic acid] | 1 ± 0.1 | 4.1 | 13100
O=C(O)C[C@H](NC(=O)CNC(=O)c1cncc(NC2=NCC(O)CN2)c1)c1cc(Br)cc(C(F)(F)F)c1 (stereo partly drawn) [Example 9, (3S)-3-[3-bromo-5-(trifluoromethyl)phenyl]-3-[[2-[[5-[(5-hydroxy-1,4,5,6-tetrahydropyrimidin-2-yl)amino]pyridine-3-carbonyl]amino]acetyl]amino]propanoic acid] | 0.3 | 5.6 | 4120

The next lines start with the values.

IC50 [1] [nM] | half-life [2] [h] | AUC(0-inf) [3] [ng·h/mL] | SMILES
59 |  |  | O=C(O)CC(NC(=O)CNC(=O)c1cc(O)cc(NC2=NCC(O)CN2)c1)c1cc(Br)cc(Br)c1O (stereo not drawn) [Example C7, reference compound]
38 |  |  | Cc1ccc(O)c(C(CC(=O)O)NC(=O)CNC(=O)c2cccc(NC(=N)N)c2)c1 (stereo not drawn) [Example C8, reference compound]
8 |  |  | O=C(O)C[C@H](NC(=O)CNC(=O)c1cc(O)cc(NC2=NCC(O)CN2)c1)c1ccccc1 (stereo partly drawn) [Example C2, reference compound]
18 |  |  | Cc1cc(Cl)cc([C@@H](CC(=O)O)NC(=O)CNC(=O)c2cc(O)cc(NC3=NCC(O)CN3)c2)c1O (stereo partly drawn) [Example C10, reference compound]
8 ± 3 |  |  | N=C(N)Nc1cccc(C(=O)NCC(=O)NC(CC(=O)O)c2cc(F)cc(C(F)(F)F)c2)c1 (stereo not drawn) [Example C9, reference compound]
16 ± 9 |  |  | O=C(O)C[C@H](NC(=O)CNC(=O)c1cc(O)cc(NC2=NCC(O)CN2)c1)c1cc(Cl)cc(Br)c1O (stereo partly drawn) [Example C1, reference compound]
7 |  |  | Cc1cc(C)cc(C(CC(=O)O)NC(=O)CNC(=O)c2cccc(NC(=N)N)c2)c1 (stereo not drawn) [Example C4, reference compound]
24 |  |  | N=C(N)Nc1cccc(C(=O)NCC(=O)NC(CC(=O)O)c2ccccc2)c1 (stereo not drawn) [Example C5, reference compound]
40 |  |  | O=C(O)CC(NC(=O)CNC(=O)c1cc(O)cc(NC2=NCC(O)CN2)c1)c1cc(Cl)cc(Cl)c1O (stereo not drawn) [Example C3, reference compound]
7 ± 4 |  |  | Cc1ccc(O)c(C(CC(=O)O)NC(=O)CNC(=O)c2cc(O)cc(NC3=NCC(O)CN3)c2)c1 (stereo not drawn) [Example C6, reference compound]
